Values quoted from earlier work as cited in PubChem BioAssay AID1259409 (Chemical Carcinogenesis Research Information System (CCRIS), 2018).

Test system: rodent chemically induced tumor inhibition, incidence and multiplicity
Assay: CCRIS tumor inhibitor studies

In the case of Clc1cccc(-c2ccc(Cl)c(Cl)c2Cl)c1Cl, the “tumour outcome (control, treated, inhibition, significance)” value (Carcinogen: DIETHYLNITROSAMINE, 55-18-5, Dose [Inhibitor]: 100 PPM IN DIET FOR 6 WK PRIOR TO CARCINOGEN DOSE (STUDY DURATION: 48 WK), Route [Inhibitor]: ORAL, Species: FISH, Strain/Sex: MT. SHASTA RAINBOW/MALE, FEMALE, Target Tissue: Type of Lesion: LIVER: HEPATOCELLULAR CARCINOMA AND HEPATOCHOLANGIOCELLULAR CARCINOMA, Dose [Carcinogen]: 250 PPM IN AQUEOUS SOLUTION FOR 24 HR, Promoter: NONE USED) is given as 105/131 (80%), 112/140 (80%), 0%, not significant.

For S=C=Nc1cccc2ccccc12, the “tumour outcome (control, treated, inhibition, significance)” value (Carcinogen: 2-AMINO-3-METHYLIMIDAZO[4,5-B]PYRIDINE (PHIP) [105650-23-5), Dose [Inhibitor]: DIET, Route [Inhibitor]: 400 PPM ADMINISTERED FROM 42 TO 66 D OF AGE, Species: RAT, Strain/Sex: SPRAGUE-DAWLEY/FEMALE, Target Tissue: Type of Lesion: MAMMARY, CARCINOMA, Dose [Carcinogen]: 85 MG/KG BW 8 TIMES OVER 11 D, STARTING 1 WK AFTER ANIT FEEDING (STUDY DURATION: 24 WKS)) is listed as 56.3%, 6.7%, 88.1%, p<0.001.

For CC1=C(/C=C/C(C)=C/C=C/C(C)=C/C=C/C=C(C)/C=C/C=C(\C)C=O)C(C)(C)CCC1, the “tumour outcome (control, treated, inhibition, significance)” value (Carcinogen: BENZO[A]PYRENE, 50-32-8, Dose [Inhibitor]: 0, 4.7 MICROMOLAR/D IN 0.1 ML PEANUT OIL BEGINNING 2 WK PRIOR TO CARCINOGEN TREATMENT AND CONTINUING TO 2 WK POST CARCIN, Route [Inhibitor]: GAVAGE, Species: MOUSE, Strain/Sex: SWISS/FEMALE, Target Tissue: Type of Lesion: FORESTOMACH: TUMOR, Dose [Carcinogen]: 1 MG 2/WK IN 0.1 ML PEANUT OIL FOR 4 WK, Promoter: NONE USED) is listed as 20/20 (100%), 5/20 (25%), 75%, p<0.001.

For CCCCCCCCCCCCCCCCCCOC1=C(O)C([C@@H](O)CO)OC1=O (some centres not stated), the “tumour outcome (control, treated, inhibition, significance)” value (Carcinogen: NONE USED, Dose [Inhibitor]: 0, 0.1% IN DIET FOR DURATION OF STUDY (STUDY DURATION: 16 MO), Route [Inhibitor]: ORAL, Species: MOUSE, Strain/Sex: C3H/HENCRJ/MALE, Target Tissue: Type of Lesion: LIVER: ADENOMA, Promoter: NONE USED) is given as 17/43 (40%), 20/39 (51%), -28%, not calculated and the “tumour outcome (control, treated, inhibition, significance)” value (Carcinogen: NONE USED, Dose [Inhibitor]: 0, 0.1% IN DIET FOR DURATION OF STUDY (STUDY DURATION: 16 MO), Route [Inhibitor]: ORAL, Species: MOUSE, Strain/Sex: C3H/HENCRJ/MALE, Target Tissue: Type of Lesion: LIVER: CARCINOMA, Promoter: NONE USED) is given as 11/43 (26%), 2/39 (5%), 81%, p<0.05.

In the case of CC(N)C(=O)NCC(=O)NC1CSSCC(C(=O)O)NC(=O)C(CO)NC(=O)C(C(C)O)NC(=O)C(Cc2ccccc2)NC(=O)C(C(C)O)NC(=O)C(CCCCN)NC(=O)C(Cc2c[nH]c3ccccc23)NC(=O)C(Cc2ccccc2)NC(=O)C(Cc2ccccc2)NC(=O)C(CC(N)=O)NC(=O)C(CCCCN)NC1=O (configuration not stated), the “tumour outcome (control, treated, inhibition, significance)” value (Carcinogen: N-NITROSOMORPHOLINE, 59-89-2, Dose [Inhibitor]: 0, 200 UG/KG BW 1/2 D FOR DURATION OF STUDY (STUDY DURATION: 16 WK), Route [Inhibitor]: SUBCUTANEOUS, Species: RAT, Strain/Sex: SPRAGUE-DAWLEY/MALE, Target Tissue: Type of Lesion: LIVER: HEPATOCELLULAR CARCINOMA, Dose [Carcinogen]: 175 MG/L DRINKING WATER FOR 8 WK, Promoter: NONE USED) is listed as 8/25 (32%), 4/25 (16%), 50%, not significant.

For S=C=NCc1cc2ccccc2c2ccccc12, the outcome (Carcinogen: BENZO[A]PYRENE, 50-32-8, Dose [Inhibitor]: 0, 5 UMOL IN ACETONE 4 HR PRIOR TO CARCINOGEN DOSE (STUDY DURATION: 20 WK), Route [Inhibitor]: DERMAL, Species: MOUSE, Strain/Sex: STRAIN-A/FEMALE, Target Tissue: Type of Lesion: SKIN: TUMOR, Dose [Carcinogen]: 0.1 UMOL IN ACETONE ONCE, Promoter: 12-O-TETRADECANOYLPHORBOL-13-ACETATE, 16561-29-8) is listed as 85%, 95%, -12%, not significant at 15 wk; 95%, 95%, 0%, not significant at 20 wk.

For O=c1cc(-c2ccccc2)oc2ccccc12, the “tumour outcome (control, treated, inhibition, significance)” value (Carcinogen: 7,12-DIMETHYLBENZ[A]ANTHRACENE, 57-97-6, Dose [Inhibitor]: 0, 45 NMOL IN 0.2 ML ACETONE APPLIED 5 MIN PRIOR TO CARCINOGEN (STUDY DURATION: 21 WK), Route [Inhibitor]: DERMAL, Species: MOUSE, Strain/Sex: SENCAR/FEMALE, Target Tissue: Type of Lesion: SKIN: PAPILLOMA, Dose [Carcinogen]: 10 NMOL IN 0.2 ML ACETONE ONCE, Promoter: 12-O-TETRADECANOYLPHORBOL-13-ACETATE, 16561-29-8) is given as 79%, 93%, -18%, not calculated, the “tumour outcome (control, treated, inhibition, significance)” value (Carcinogen: 7,12-DIMETHYLBENZ[A]ANTHRACENE, 57-97-6, Dose [Inhibitor]: 0, 450 NMOL IN 0.2 ML ACETONE APPLIED 5 MIN PRIOR TO CARCINOGEN (STUDY DURATION: 21 WK), Route [Inhibitor]: DERMAL, Species: MOUSE, Strain/Sex: SENCAR/FEMALE, Target Tissue: Type of Lesion: SKIN: PAPILLOMA, Dose [Carcinogen]: 10 NMOL IN 0.2 ML ACETONE ONCE, Promoter: 12-O-TETRADECANOYLPHORBOL-13-ACETATE, 16561-29-8) is given as 79%, 100%, -27%, not calculated and the “tumour outcome (control, treated, inhibition, significance)” value (Carcinogen: 7,12-DIMETHYLBENZ[A]ANTHRACENE, 57-97-6, Dose [Inhibitor]: 0, 4500 NMOL IN 0.2 ML ACETONE APPLIED 5 MIN PRIOR TO CARCINOGEN (STUDY DURATION: 21 WK), Route [Inhibitor]: DERMAL, Species: MOUSE, Strain/Sex: SENCAR/FEMALE, Target Tissue: Type of Lesion: SKIN: PAPILLOMA, Dose [Carcinogen]: 10 NMOL IN 0.2 ML ACETONE ONCE, Promoter: 12-O-TETRADECANOYLPHORBOL-13-ACETATE, 16561-29-8) is given as 79%, 80%, -1%, not calculated. The “tumour outcome (control, treated, inhibition, significance)” value (Carcinogen: 7,14-DIMETHYLBENZO[A,H]ANTHRACENE, 35335-07-0, Dose [Inhibitor]: 0, 45 NMOL IN 0.2 ML ACETONE APPLIED 5 MIN PRIOR TO CARCINOGEN (STUDY DURATION: 21 WK), Route [Inhibitor]: DERMAL, Species: MOUSE, Strain/Sex: SENCAR/FEMALE, Target Tissue: Type of Lesion: SKIN: PAPILLOMA, Dose [Carcinogen]: 47.5 NMOL IN 0.2 ML ACETONE ONCE, Promoter: 12-O-TETRADECANOYLPHORBOL-13-ACETATE, 16561-29-8) was 97%, 97%, 0%, the “tumour outcome (control, treated, inhibition, significance)” value (Carcinogen: 7,14-DIMETHYLBENZO[A,H]ANTHRACENE, 35335-07-0, Dose [Inhibitor]: 0, 450 NMOL IN 0.2 ML ACETONE APPLIED 5 MIN PRIOR TO CARCINOGEN (STUDY DURATION: 21 WK), Route [Inhibitor]: DERMAL, Species: MOUSE, Strain/Sex: SENCAR/FEMALE, Target Tissue: Type of Lesion: SKIN: PAPILLOMA, Dose [Carcinogen]: 47.5 NMOL IN 0.2 ML ACETONE ONCE, Promoter: 12-O-TETRADECANOYLPHORBOL-13-ACETATE, 16561-29-8) was 97%, 97%, 0% and the “tumour outcome (control, treated, inhibition, significance)” value (Carcinogen: 7,14-DIMETHYLBENZO[A,H]ANTHRACENE, 35335-07-0, Dose [Inhibitor]: 0, 4500 NMOL IN 0.2 ML ACETONE APPLIED 5 MIN PRIOR TO CARCINOGEN (STUDY DURATION: 21 WK), Route [Inhibitor]: DERMAL, Species: MOUSE, Strain/Sex: SENCAR/FEMALE, Target Tissue: Type of Lesion: SKIN: PAPILLOMA, Dose [Carcinogen]: 47.5 NMOL IN 0.2 ML ACETONE ONCE, Promoter: 12-O-TETRADECANOYLPHORBOL-13-ACETATE, 16561-29-8) was 97%, 68%, 30%, not calculated. The “tumour outcome (control, treated, inhibition, significance)” value (Carcinogen: DIBENZO[A,H]ANTHRACENE, 53-70-3, Dose [Inhibitor]: 0, 45 NMOL IN 0.2 ML ACETONE APPLIED 5 MIN PRIOR TO CARCINOGEN (STUDY DURATION: 21 WK), Route [Inhibitor]: DERMAL, Species: MOUSE, Strain/Sex: SENCAR/FEMALE, Target Tissue: Type of Lesion: SKIN: PAPILLOMA, Dose [Carcinogen]: 200 NMOL IN 0.2 ML ACETONE ONCE, Promoter: 12-O-TETRADECANOYLPHORBOL-13-ACETATE, 16561-29-8) was 100%, 93%, 7%, not calculated, the “tumour outcome (control, treated, inhibition, significance)” value (Carcinogen: DIBENZO[A,H]ANTHRACENE, 53-70-3, Dose [Inhibitor]: 0, 450 NMOL IN 0.2 ML ACETONE APPLIED 5 MIN PRIOR TO CARCINOGEN (STUDY DURATION: 21 WK), Route [Inhibitor]: DERMAL, Species: MOUSE, Strain/Sex: SENCAR/FEMALE, Target Tissue: Type of Lesion: SKIN: PAPILLOMA, Dose [Carcinogen]: 200 NMOL IN 0.2 ML ACETONE ONCE, Promoter: 12-O-TETRADECANOYLPHORBOL-13-ACETATE, 16561-29-8) was 100%, 86%, 14%, not calculated and the “tumour outcome (control, treated, inhibition, significance)” value (Carcinogen: DIBENZO[A,H]ANTHRACENE, 53-70-3, Dose [Inhibitor]: 0, 4500 NMOL IN 0.2 ML ACETONE APPLIED 5 MIN PRIOR TO CARCINOGEN (STUDY DURATION: 21 WK), Route [Inhibitor]: DERMAL, Species: MOUSE, Strain/Sex: SENCAR/FEMALE, Target Tissue: Type of Lesion: SKIN: PAPILLOMA, Dose [Carcinogen]: 200 NMOL IN 0.2 ML ACETONE ONCE, Promoter: 12-O-TETRADECANOYLPHORBOL-13-ACETATE, 16561-29-8) was 100%, 93%, 7%, not calculated. The “tumour outcome (control, treated, inhibition, significance)” value (Dose [Inhibitor]: 0, 1000 PPM IN DIET BEGINNING 8 WK PRIOR TO CARCINOGEN AND CONTINUING FOR 6 WK POST CARCINOGEN (STUDY DURATION: 68 WK), Route [Inhibitor]: ORAL, Species: FISH, Strain/Sex: RAINBOW TROUT, Target Tissue: Type of Lesion: LIVER: HEPATOCELLULAR CARCINOMA, Dose [Carcinogen]: 20 PPB IN DIET FOR 2 WK, Promoter: NONE USED) was 43/118 (36%), 45/120 (38%), -5%, not significant.
